Assay [1] has as its target T1, FKBP12 (Candida albicans, UniProt C4YFI3+C4YS24+P28870).
T1 construct: gene RBP1; biotinylated (Avi-tagged) FKBP12; with CnA-CnB-calmodulin
Put plainly: BLI, compound-mediated ternary complex formation, […] compound. The format is binding. (BLI is a label-free optical method that tracks binding on a fibre tip over time.)

Assay [2] concerns T2, Cryptococcus neoformans (H99).
T2 construct: H99
Briefly: microbe, parasite or virus in culture. On the set-up: CLSI M27-A3 broth microdilution in RPMI 1640 at 37 C, growth inhibition of C. neoformans (MIC). The note with it: Cryptococcus neoformans, read-out: MIC (μg/mL) against: / Cryptococcus neoformans (H99)^a. On the procedure: In vitro antifungal activities of FK506, FK520, and analogs were assessed in RPMI 1640 (Sigma-Aldrich) for all strains tested. MICs/minimum effective concentrations (MECs) for each drug were measured using modified Clinical and Laboratory Standards Institute (CLSI) M38-A2 and M27-A3 standard in vitro antifungal susceptibility protocols. Broth microdilution assays for MIC/MEC assessment were performed as described previously ([33]). All antifungal assays with C. neoformans were performed at 37°C. Antifungal susceptibility testing for C. albicans was performed in the presence of a uniform 1 μg/mL concentration of fluconazole to sensitize the organism to calcineurin inhibition. MICs/minimum effective concentrations (MECs) were determined for each of the novel analogs against the three major human fungal pathogens, A. fumigatus, C. neoformans, and C. albicans. […] Thus, analogs of FK506 and FK520 can tolerate up to 100-fold reduction in antifungal activity and still be considered for in vivo testing. For C. neoformans, MICs were the most uniform and ranged from 0.2 to 2 μg/mL, which is between 4- and 40-fold reduced for antifungal activity. C. albicans MICs ranged from 0.2 to 6.25 μg/mL, which is between 10- and 312.5-fold reduced for activity. Despite being one of the most difficult to treat fungal infections, all six analogs were active against A. fumigatus with MECs ranging from 1 to 2 μg/mL or a 62.5- to 125-fold reduction in activity.

Assay [3] deals with T3, FKBP12 (Aspergillus fumigatus, UniProt Q4WLV6).
T3 construct: gene fpr1A; biotinylated (Avi-tagged) FKBP12; with CnA-CnB-calmodulin
T3 sequence (Q4WLV6 whole entry): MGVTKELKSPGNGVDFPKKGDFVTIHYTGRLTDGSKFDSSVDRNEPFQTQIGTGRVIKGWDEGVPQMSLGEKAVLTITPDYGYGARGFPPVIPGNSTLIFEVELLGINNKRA
T3 sequence (Q4WUR1 whole entry partner): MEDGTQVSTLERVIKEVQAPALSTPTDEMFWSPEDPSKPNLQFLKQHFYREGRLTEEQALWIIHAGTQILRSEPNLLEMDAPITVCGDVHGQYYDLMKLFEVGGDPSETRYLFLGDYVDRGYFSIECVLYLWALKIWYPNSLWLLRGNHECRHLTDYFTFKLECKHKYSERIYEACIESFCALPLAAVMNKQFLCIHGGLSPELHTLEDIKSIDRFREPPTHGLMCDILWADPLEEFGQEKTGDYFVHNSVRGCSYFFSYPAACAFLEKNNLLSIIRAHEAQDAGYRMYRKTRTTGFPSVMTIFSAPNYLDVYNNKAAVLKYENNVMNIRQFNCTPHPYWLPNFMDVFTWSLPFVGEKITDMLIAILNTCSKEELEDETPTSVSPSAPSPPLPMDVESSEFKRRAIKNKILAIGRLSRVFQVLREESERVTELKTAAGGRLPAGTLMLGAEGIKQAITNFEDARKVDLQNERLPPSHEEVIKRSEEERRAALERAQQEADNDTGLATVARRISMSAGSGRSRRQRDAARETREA
Briefly: BLI, compound-mediated ternary complex formation, […] compound. It is filed as binding.

In brackets after ≈: the same amount, converted by molar mass.

T1 sequence (P28870 whole entry): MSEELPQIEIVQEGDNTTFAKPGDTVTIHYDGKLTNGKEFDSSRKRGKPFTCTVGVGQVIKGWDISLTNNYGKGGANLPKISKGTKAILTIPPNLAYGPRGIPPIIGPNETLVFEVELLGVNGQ
T1 sequence (C4YFI3 54-445): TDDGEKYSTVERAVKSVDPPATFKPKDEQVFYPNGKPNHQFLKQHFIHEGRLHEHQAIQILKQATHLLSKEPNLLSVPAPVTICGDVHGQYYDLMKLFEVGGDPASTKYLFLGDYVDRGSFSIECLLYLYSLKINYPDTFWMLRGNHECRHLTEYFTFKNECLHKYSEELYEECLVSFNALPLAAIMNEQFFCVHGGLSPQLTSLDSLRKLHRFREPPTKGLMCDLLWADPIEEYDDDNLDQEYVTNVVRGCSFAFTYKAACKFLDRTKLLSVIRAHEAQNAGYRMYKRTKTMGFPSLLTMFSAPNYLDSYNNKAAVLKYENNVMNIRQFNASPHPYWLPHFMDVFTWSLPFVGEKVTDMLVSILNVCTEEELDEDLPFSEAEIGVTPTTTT
T1 sequence (C4YS24 1-173): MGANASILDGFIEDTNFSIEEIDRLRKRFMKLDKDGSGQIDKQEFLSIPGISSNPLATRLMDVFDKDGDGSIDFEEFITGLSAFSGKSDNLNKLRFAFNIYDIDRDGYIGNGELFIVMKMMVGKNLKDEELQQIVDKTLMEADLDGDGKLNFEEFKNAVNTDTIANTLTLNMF
T1 sequence (P23286 whole entry partner): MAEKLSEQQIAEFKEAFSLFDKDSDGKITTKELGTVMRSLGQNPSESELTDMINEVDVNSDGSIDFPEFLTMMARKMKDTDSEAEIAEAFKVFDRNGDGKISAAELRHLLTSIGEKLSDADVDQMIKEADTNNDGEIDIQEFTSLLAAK

`C=CC[C@@H]1/C=C(\C)C[C@H](C)C[C@H](OC)[C@H]2O[C@@](O)(C(=O)C(=O)N3CCCC[C@H]3C(=O)O[C@H](/C(C)=C/[C@@H]3CC[C@@H](O)[C@H](OC)C3)[C@H](C)[C@@H](O)CC1=O)[C@H](C)C[C@@H]2OC` [FK506]: at FKBP12 [1], the “BLI, compound-mediated ternary complex formation, 10 μM compound” value was “along with compounds FK506, APX879, FK520, JH-FK-02, and JH-FK-05”. Also, the MIC in assay [2] turned out to be 0.05 µg/mL (≈ 0.0622 µM).

`C=CC[C@@H]1/C=C(\C)C[C@H](C)C[C@H](OC)[C@H]2O[C@@](O)(C(=O)C(=O)N3CCCC[C@H]3C(=O)O[C@H](/C(C)=C/[C@@H]3CC[C@@H](O)[C@H](OC)C3)[C@H](C)[C@@H](O)C/C1=N/NC(=O)CC)[C@H](C)C[C@@H]2OC` [JH-FK-02]: the “BLI, compound-mediated ternary complex formation, 10 μM compound” value at FKBP12 [1] and at FKBP12 [3] was “target complexes form in the presence of the analogs with affinities similar to those of the parent compounds” throughout. In addition, in assay [2], the MIC worked out at 2 µg/mL (≈ 2.29 µM).

For the molecule `C=CC[C@@H]1/C=C(\C)C[C@H](C)C[C@H](OC)[C@H]2O[C@@](O)(C(=O)C(=O)N3CCCC[C@H]3C(=O)O[C@H](/C(C)=C/[C@@H]3CC[C@@H](O)[C@H](OC)C3)[C@H](C)[C@@H](O)C/C1=N/NC(C)=O)[C@H](C)C[C@@H]2OC` [JH-FK-01, APX879], the MIC in assay [2] turned out to be 1 µg/mL (≈ 1.16 µM).

The record behind these values is PMC9239059, “Structure-Guided Synthesis of FK506 and FK520 Analogs with Increased Selectivity Exhibit In Vivo Therapeutic Efficacy against Cryptococcus” (mBio, 2022).
